Source: patent publication US10183000B1, “2, 4-dinitroanilino-benzoic acid: novel insulinotropic agent for the treatment of diabetes” (priority 2017, dated 2019)
Entries after “also recorded” stand apart in the source; their conditions may differ.

How the values were obtained:
[1] = test system: STZ-induced diabetic rats; assay: Fasting blood glucose in STZ-induced diabetic rats, eight weeks of treatment; type: in vivo, Wistar rats
Method: Animals: Eight weeks old Wistar rats (n=54; 24 males: 30 females) weighing 160-180 g were used in the study. During the eight weeks of the experiment, animals were kept in the animal house with a controlled temperature (25±2°C.), and 12 hours light/dark cycle. Water and standardized food access were provided at libitum.
Diabetes Induction: Prior to induction of diabetes, animals were given a high-fat diet (40% fat content) for two weeks. Diabetes was induced by administrating intraperitoneally a single dose of freshly prepared solution of streptozotocin (45 mg/kg) (Wako, Richmond, USA) in a chilled 0.1 M citrate buffer, pH 4.5. The normal control rats were injected with citrate buffer alone. Fasting blood glucose levels (FBG) were measured after 48 hours, and one week of diabetes induction with a blood glucose analyzer (Accu-Chek®, Roche, Mannheim, Germany). […]
Blood glucose levels and body weight of each group were monitored on weekly basis under fasting states. […] Serum- and isolated pancreatic insulin contents were measured by rat insulin ELISA kit (Amersham Biosciences, N.J., USA).
Statistical Analysis: All results are expressed as means ±SEM. The significance of differences between groups was determined by using one-way ANOVA, and multiple comparisons were performed by Tukey Alpha, post hoc analysis. […]

[2] = test system: STZ-induced diabetic rats; assay: Dose optimization of anti-diabetic effect in STZ-induced diabetic rats; type: in vivo, Wistar rats; settings: 25, 50, and 100 mg/kg in STZ-induced diabetic rats
Method: (§1) Diabetes Induction: Prior to induction of diabetes, animals were given a high-fat diet (40% fat content) for two weeks. Diabetes was induced by administrating intraperitoneally a single dose of freshly prepared solution of streptozotocin (45 mg/kg) (Wako, Richmond, USA) in a chilled 0.1 M citrate buffer, pH 4.5. The normal control rats were injected with citrate buffer alone. Fasting blood glucose levels (FBG) were measured after 48 hours, and one week of diabetes induction with a blood glucose analyzer (Accu-Chek®, Roche, Mannheim, Germany). Rats with FBG levels of ≥200 mg/dL were considered diabetic, and randomly divided into diabetic and a compound 1-treated (100 mg/kg) groups. […] This indicated the safety of doses up to 100 mg/kg of body weight.

[3] = test system: STZ-induced diabetic rats; assay: Mortality on daily oral administration for eight weeks; type: in vivo, Wistar rats; settings: doses up to 100 mg/kg of body weight
Method: as §1

[4] = test system: STZ-induced diabetic rats; assay: Serum insulin levels by rat insulin ELISA; type: in vivo, Wistar rats; settings: 100 mg/kg, 8 weeks, vs STZ-induced diabetic group
Method: (§2) Blood glucose levels and body weight of each group were monitored on weekly basis under fasting states. Blood samples were drawn from tail vein to measure the glucose levels by blood glucose analyzer. After 8 weeks of the experiments, rats under 8 hours of fasting states were anaesthetized by phenobarbital sodium (60 mg/kg), and blood samples were collected via cardiopuncture. Serum was stored at −80° C. until measurement of the insulin levels. A part of cryopreserved isolated pancreas was used for the measurement of pancreatic insulin contents. Briefly, pancreas were homogenized in an acid-ethanol solution (75% ethanol, 1.5% HCl, and 23.5% deionized water), and the mixture was kept for 4 hours at 4° C. to extract the insulin. Serum- and isolated pancreatic insulin contents were measured by rat insulin ELISA kit (Amersham Biosciences, N.J., USA).

[5] = test system: STZ-induced diabetic rats; assay: Pancreatic insulin contents by acid-ethanol extraction and rat insulin ELISA; type: in vivo, Wistar rats; settings: 100 mg/kg, 8 weeks, vs STZ-induced diabetic group
Method: as §2

[6] = test system: pancreatic islet in diabetic Wistar rats; assay: Islets histopathology (H&E) and insulin immunohistochemistry; type: in vivo; settings: 100 mg/kg
Method: Procedure: Pancreata isolated from rats were fixed with 3.7% neutral buffered formalin and embedded in paraffin. The 5 μm thick sections (n=6/group) were stained with eosin and hematoxilin, and evaluated for islets histopathology, after performing deparaffinization and dehydration steps. For immunohistochemistry analysis, briefly the antigen was first retrieved by heating for 40 min at 90° C. in 5.0 mM citrate buffer, pH 4.5. Prior to primary antibody treatment, each section was then cooled at room temperature, and incubated with 1× rotti immunoblocking solution (Carl Roth, Karlsruhe, Germany). The sections were immunostained with mouse K36AC10 monoclonal anti-insulin antibody (1:2,000) (Sigma Aldrich, St. Louis, Mo., USA) for 1 hour in a dark humidified chamber at 37° C. The sections were then immunostained with Alexa Fluor 594 donkey anti-mouse IgM secondary antibody (1:200)(Jackson ImmunoResearch, Pa., USA) for 1 hour in a dark chamber at 37° C. for detention. Finally, beta cells nuclei were stained with DAPI (1:5,000) (Sigma Aldrich, St, Louis, Mo., USA). The stained sections were observed under Nikon 90i microscope, equipped with DXM-1200 digital camera (Nikon, Tokyo, Japan).

[7] = test system: pancreatic islet in diabetic Wistar rats; assay: Quantification of pancreatic islet area and beta-cell number; type: in vivo; settings: 100 mg/kg, per pancreas section, n=5
Description: Procedure: The pancreatic islet area (μ2) and the beta-cell number were quantified from overlapped images of pancreas that was immunostained with insulin and DAPI in all islet sections using NIS-Elements image analysis software AR 3.0. The pancreatic islet area (μ2) and the beta-cell number per section were enumerated by using five sections per pancreas, and five rats from each group.

O=C(O)c1ccccc1Nc1ccc([N+](=O)[O-])cc1[N+](=O)[O-] [Compound 1, 2,4-Dinitroanilino-benzoic acid]
FBG levels (in words) ([1]; 100 mg/kg of body weight, long term treatment, vs untreated diabetic group): significant reduction in FBG levels
FBG ([1]; STZ-induced diabetic rats, 100 mg/kg, eight weeks of treatment, mean ± SE, 06 rats, *P<0.05 vs diabetic group): 126 ± 8* mg/dL
anti-diabetic effect, dose optimization [2]: dose dependent anti-diabetic effect was observed with a significant effect at 100 mg/kg
mortality [3]: without significant mortality
serum insulin levels [4]: marked increase in serum insulin levels
pancreatic insulin contents [5]: increase in pancreatic insulin contents; also recorded: significantly restored
degenerative changes / islet atrophy (histopathology) ([6]; H&E staining, STZ-induced diabetic rats): markedly attenuated the STZ-induced islet atrophy; also recorded: significantly attenuated
immunofluorescent staining for insulin / residual beta-cell function ([6]; anti-insulin immunostaining, vs STZ-induced diabetic group): increased immunoreactivity for insulin; also recorded: restored the residual beta-cell function
beta-cell number [7]: significantly restored
islet area [7]: significantly restored
